Some test systems named below: SK-MEL-5 melanoma; NCI-H522 lung; OVCAR-4 ovarian; HCT-116 colon; SW-620 colon; SR leukemia; MALME-3M melanoma; CCRF-CEM leukemia; SF-268 CNS; RPMI-8226 leukemia; SNB-19 CNS; MOLT-4 leukemia; OVCAR-5 ovarian; OVCAR-3 ovarian; RXF 393 renal.
Holding throughout (assay): inhibition of tumour cell growth, NCI panel, 48 h

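All cell lines were grown in 96-well plates and treated with compound for 48 hours. Definition used: TGI = concentration required for complete inhibition of growth.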

As to `CCC(=O)NCC1(c2c[nH]c3ccccc23)SCCS1`, the TGI in the assay with SK-MEL-5 melanoma, with NCI-H522 lung, in the assay with OVCAR-4 ovarian, in the assay with HCT-116 colon, in the assay with SW-620 colon and with SR leukemia was more than 100 µM each time. For the same molecule, the TGI in the assay with MALME-3M melanoma, with CCRF-CEM leukemia, in the assay with SF-268 CNS, in the assay with RPMI-8226 leukemia, in the assay with SNB-19 CNS and in the assay with MOLT-4 leukemia was more than 100 µM each time. The TGI in the assay on OVCAR-5 ovarian and in the assay with OVCAR-3 ovarian was more than 100 µM throughout.

`O=C(Cc1ccccc1)NN1C(=O)C(Cl)C1c1cc(Br)cc(Br)c1O` (configuration not stated): the TGI is 29.6 µM with SK-MEL-5 melanoma; 16.9 µM with NCI-H522 lung; 40.4 µM with RXF 393 renal; 80.4 µM in the assay on OVCAR-4 ovarian; 16 µM in the assay on HCT-116 colon; 30.5 µM with SW-620 colon. The TGI was determined as 13.1 µM in the assay with SR leukemia; 51.9 µM in the assay with MALME-3M melanoma; 24.1 µM in the assay on CCRF-CEM leukemia; 43.3 µM in the assay with SF-268 CNS; 29.1 µM with RPMI-8226 leukemia; 38.9 µM in the assay on SNB-19 CNS. The TGI in the assay on MOLT-4 leukemia was found to be 13.2 µM; in the assay on OVCAR-5 ovarian it was 38.5 µM; in the assay on OVCAR-3 ovarian it was 10.7 µM.

In the case of `CC(=O)C1CC2(c3ccccc3)C(=O)c3ccccc3N2O1` (configuration not stated), the TGI with SK-MEL-5 melanoma, in the assay with NCI-H522 lung, with RXF 393 renal, in the assay on OVCAR-4 ovarian, in the assay on HCT-116 colon and in the assay on SW-620 colon was more than 100 µM each time. Further, the TGI in the assay with SR leukemia, in the assay on MALME-3M melanoma, in the assay on CCRF-CEM leukemia, with SF-268 CNS, with RPMI-8226 leukemia and with SNB-19 CNS was more than 100 µM in each case. The TGI in the assay with MOLT-4 leukemia was more than 100 µM.

As to `CCCN(CCC)C(=O)Cc1c2n(c3ccccc13)CCCc1ccccc1-2`, the TGI came to 27.4 µM in the assay on SK-MEL-5 melanoma; 25.3 µM with NCI-H522 lung; 22.4 µM in the assay on RXF 393 renal; 26.2 µM in the assay with OVCAR-4 ovarian; 26.3 µM in the assay on HCT-116 colon; 30.2 µM with SW-620 colon. The TGI amounted to 24.8 µM in the assay on SR leukemia; 26.8 µM with MALME-3M melanoma; 37.2 µM in the assay with CCRF-CEM leukemia; 28.5 µM in the assay on SF-268 CNS; 37.6 µM in the assay on RPMI-8226 leukemia; 27.7 µM in the assay on SNB-19 CNS. Moreover, the TGI turned out to be 32.9 µM with MOLT-4 leukemia and 29.5 µM with OVCAR-3 ovarian.

`CSc1ccc2c(cc1=O)C(NC(=O)c1cc(O)c(OC(=O)O)c(O)c1)CCc1cc(O)c(O)c(O)c1-2` (configuration not stated): the TGI is 29.1 µM with SK-MEL-5 melanoma; 21.8 µM in the assay on NCI-H522 lung; more than 90 µM in the assay on RXF 393 renal; 40.9 µM in the assay with OVCAR-4 ovarian; 29.1 µM with HCT-116 colon; 29.3 µM in the assay with SW-620 colon. Also, the TGI was more than 90 µM in the assay on MALME-3M melanoma; more than 90 µM with CCRF-CEM leukemia; 43 µM in the assay with SF-268 CNS; 39.8 µM in the assay with RPMI-8226 leukemia; more than 90 µM with SNB-19 CNS; 35.6 µM in the assay with MOLT-4 leukemia. For the same molecule, the TGI in the assay on OVCAR-5 ovarian is more than 9 µM; with OVCAR-3 ovarian, 40 µM.

As to `COc1cc([C@@H]2c3cc4c(cc3[C@@H](NC(=O)c3ccc(C(C)=O)cc3)C3COC(=O)[C@@H]32)OCO4)cc(OC)c1O` (some centres not stated), the TGI in the assay on SK-MEL-5 melanoma is 10.3 µM; in the assay with NCI-H522 lung it was 3.89 µM; with RXF 393 renal it was 72.1 µM; in the assay on OVCAR-4 ovarian, more than 100 µM; in the assay with HCT-116 colon, 5.03 µM; in the assay on SW-620 colon it was 12.3 µM. In addition, the TGI was 3.33 µM in the assay with MALME-3M melanoma; more than 100 µM with CCRF-CEM leukemia; more than 100 µM in the assay with SF-268 CNS; 14.5 µM with RPMI-8226 leukemia; more than 100 µM with SNB-19 CNS; 29.9 µM in the assay with MOLT-4 leukemia. Further, the values for the TGI in the assay with OVCAR-5 ovarian and in the assay with OVCAR-3 ovarian were 7.69 µM and 7.61 µM, respectively.

Consider `O=S(=O)(O)c1cc(O)c2c(O)c(N=Nc3ccc(/C=C/c4ccc(N=Nc5c(S(=O)(=O)O)cc6cc(S(=O)(=O)O)cc(O)c6c5O)cc4S(=O)(=O)O)c(S(=O)(=O)O)c3)c(S(=O)(=O)O)cc2c1`, for which the TGI in the assay on SK-MEL-5 melanoma, in the assay with NCI-H522 lung, in the assay with RXF 393 renal, with OVCAR-4 ovarian, in the assay with HCT-116 colon and with SW-620 colon was more than 100 µM each time. Further, the TGI in the assay with SR leukemia, in the assay with MALME-3M melanoma, in the assay with CCRF-CEM leukemia, in the assay on SF-268 CNS, with RPMI-8226 leukemia and with SNB-19 CNS was more than 100 µM each time. In addition, the TGI with MOLT-4 leukemia, with OVCAR-5 ovarian and in the assay with OVCAR-3 ovarian was more than 100 µM throughout.

For `C/C(=N\O)C(CN(C)C)C(c1ccccc1)c1c(O)c2ccccc2oc1=O` (configuration not stated), the TGI in the assay on SK-MEL-5 melanoma, in the assay with NCI-H522 lung, in the assay with RXF 393 renal, with OVCAR-4 ovarian, in the assay with HCT-116 colon and in the assay on SW-620 colon was more than 100 µM throughout. Further, the TGI in the assay on SR leukemia, in the assay on MALME-3M melanoma, in the assay with CCRF-CEM leukemia, in the assay with SF-268 CNS, with RPMI-8226 leukemia and with SNB-19 CNS was more than 100 µM in each case. Moreover, the TGI with MOLT-4 leukemia and in the assay on OVCAR-5 ovarian was more than 100 µM throughout.

Regarding `CCN(CC)CCNC(=O)c1ccccc1Nc1c(Cl)cccc1Cl`, the TGI came to 24.2 µM with SK-MEL-5 melanoma; 27.9 µM in the assay on RXF 393 renal; 30.2 µM in the assay on OVCAR-4 ovarian; 25.7 µM in the assay on HCT-116 colon; 29.6 µM in the assay on SW-620 colon; 34.2 µM in the assay with SR leukemia. Besides, the TGI in the assay on CCRF-CEM leukemia is 35.2 µM; in the assay on SF-268 CNS, 34.7 µM; in the assay with RPMI-8226 leukemia, 30.2 µM; in the assay with SNB-19 CNS it was 30.9 µM; with MOLT-4 leukemia, 31.2 µM; in the assay on OVCAR-5 ovarian it was 20.4 µM.

In the case of `CCOP(=O)(C/C(=N/NC(C)(C)C)C(=O)Nc1nc2ccc(C)cc2s1)OCC`, the TGI in the assay with SK-MEL-5 melanoma, in the assay on NCI-H522 lung, with RXF 393 renal, in the assay with OVCAR-4 ovarian, with HCT-116 colon and with SW-620 colon was more than 100 µM throughout. In addition, the TGI with SR leukemia, with MALME-3M melanoma, in the assay on CCRF-CEM leukemia, with SF-268 CNS, with SNB-19 CNS and in the assay on MOLT-4 leukemia was more than 100 µM throughout. Further, the TGI in the assay with OVCAR-5 ovarian and in the assay with OVCAR-3 ovarian was more than 100 µM in each case.

`C/C(CC(=O)Nc1ccc(C)cc1)=N\NC(N)=S`: the TGI in the assay on SK-MEL-5 melanoma, in the assay with NCI-H522 lung, with RXF 393 renal, in the assay with HCT-116 colon, with SW-620 colon and with MALME-3M melanoma was more than 100 µM in each case. Also, the TGI with CCRF-CEM leukemia, with SF-268 CNS, in the assay with RPMI-8226 leukemia, in the assay with MOLT-4 leukemia, with OVCAR-5 ovarian and in the assay on OVCAR-3 ovarian was more than 100 µM in each case.

`COC(=O)C(=O)C(C(=O)C(=O)Nc1ccc([N+](=O)[O-])cc1C#N)c1nc2ccc([N+](=O)[O-])cc2[nH]c1=O` (configuration not stated): the TGI with NCI-H522 lung, in the assay with RXF 393 renal, in the assay with OVCAR-4 ovarian, in the assay on HCT-116 colon, with SW-620 colon and in the assay with SR leukemia was more than 100 µM throughout. For the same molecule, the TGI in the assay on MALME-3M melanoma, in the assay with CCRF-CEM leukemia, with SF-268 CNS, with RPMI-8226 leukemia, in the assay on SNB-19 CNS and in the assay with MOLT-4 leukemia was more than 100 µM throughout. Besides, the TGI in the assay on OVCAR-5 ovarian and with OVCAR-3 ovarian was more than 100 µM in each case.

For `CC1(Br)C(=O)NC(=O)N([C@H]2C[C@H](O)[C@@H](CO)O2)C1N=[N+]=[N-]` (some centres not stated), the TGI in the assay with SK-MEL-5 melanoma, with NCI-H522 lung, with RXF 393 renal, in the assay with OVCAR-4 ovarian, in the assay on HCT-116 colon and in the assay on SW-620 colon was more than 100 µM in each case. Also, the TGI in the assay with SR leukemia, in the assay on MALME-3M melanoma, in the assay with CCRF-CEM leukemia, in the assay with SF-268 CNS, with RPMI-8226 leukemia and in the assay on SNB-19 CNS was more than 100 µM each time. Moreover, the TGI in the assay on MOLT-4 leukemia, in the assay with OVCAR-5 ovarian and with OVCAR-3 ovarian was more than 100 µM each time.

Consider `CN1C(=O)c2cccc3c([N+](=O)[O-])ccc(c23)C1=O`, for which the TGI worked out at 32.6 µM in the assay with SK-MEL-5 melanoma; 2.91 µM in the assay with NCI-H522 lung; 8.61 µM with RXF 393 renal; 25.9 µM with OVCAR-4 ovarian; 18.9 µM in the assay on HCT-116 colon; 6.12 µM in the assay with SW-620 colon. Moreover, the TGI in the assay on SR leukemia came to 14 µM; in the assay on MALME-3M melanoma it was 31.1 µM; with CCRF-CEM leukemia, 39.5 µM; in the assay on SF-268 CNS, 23.5 µM; with SNB-19 CNS it was 28 µM; in the assay on MOLT-4 leukemia, 28.2 µM. Besides, the figures for the TGI with OVCAR-5 ovarian and in the assay on OVCAR-3 ovarian were 13.4 µM and 11.4 µM, respectively.

In the case of `O=C1c2ccccc2N2OC3C4CCC(C4)C3C12c1ccccc1` (configuration not stated), the TGI in the assay with SK-MEL-5 melanoma was more than 100 µM; with NCI-H522 lung, more than 100 µM; in the assay on RXF 393 renal, 77.8 µM; with OVCAR-4 ovarian, more than 100 µM; with HCT-116 colon, more than 100 µM; in the assay with SW-620 colon, more than 100 µM. Moreover, the TGI in the assay on SR leukemia, in the assay with MALME-3M melanoma, in the assay with CCRF-CEM leukemia, with SF-268 CNS, in the assay on RPMI-8226 leukemia and in the assay with SNB-19 CNS was more than 100 µM each time. The molecule further displayed a TGI with MOLT-4 leukemia of more than 100 µM.
